Tests used:
[1] = tested on: human CD40 transgenic mice; assay: Mouse skin graft rejection model (anti-CD40-ADC); format: in vivo; conditions: 10 mpk ip, budesonide 0.12 mg/kg QD, dexamethasone 20 mpk QD
Text: Male Balb/c mice, 6 weeks old, were purchased from the Laboratory Animal Management Department, Shanghai Institute of Planned Parenthood Research.
(§1) On day −2 of the experiment, the mice were intraperitoneally injected with the CD40 antagonistic antibody, anti-CD40-ADC, or glucocorticoid. On day 0 of the experiment, donor Balb/c mice and C57BL6/J mice were anesthetized with 4% chloral hydrate. The tails of the donor mice were removed, and full circles of skin, 1 cm in length, were isolated from the tails. The hair on the acceptor mice's back was removed, and an incision was made along the skin layer. An equal area of skin was removed while preserving the back fat and connective tissue. The donor skin was placed on the acceptor mice's incision site, and the incision was closed with glue. The mice were then placed back in cages to recover.
The mice were dosed according to the administration regimens in Table 27. After 7 days of recovery, the mouse skin survival was observed daily and rejection scores were recorded.

[2] = tested on: human CD40 transgenic mice; assay: Mouse skin graft rejection model (antibodies, tacrolimus combination); format: in vivo; conditions: FK506 3 mpk, alone or combined
Text: Male Balb/c mice, 6 weeks old, were purchased from the Laboratory Animal Management Department, Shanghai Institute of Planned Parenthood Research. Housing environment: SPF; certification number: 20180006023393.
as §1, with “On day-2” for “On day −2”, “with tacrolimus FK506 or” for “with the”, “antagonistic antibodies.” for “antagonistic antibody, anti-CD40-ADC, or glucocorticoid.”
The mice were dosed according to the administration regimens in Table 16. After 7 days of recovery, the mouse skin survival was observed daily and rejection scores were recorded.

Structure (SMILES) | Skin graft survival rate (%), 10 days [1] [%] | Skin graft survival rate (%), 15 days [1] [%] | Skin graft survival rate (%), 20 days [1] [%] | Skin graft score, 10 days ([1]; score 3 to 0) | Skin graft score, 15 days ([1]; score 3 to 0) | Skin graft score, 20 days ([1]; score 3 to 0) | Day-15 skin graft survival rate (%) ([2]; Table 20: antibody 10 mpk) | Skin graft score, 8 days ([2]; Table 22: 2F12-L4H2 10 mpk) | Skin graft score, 10 days ([2]; Table 22: 2F12-L4H2 10 mpk) | Skin graft score, 15 days ([2]; Table 22: 2F12-L4H2 10 mpk) | Skin graft score, 20 days ([2]; Table 22: 2F12-L4H2 10 mpk)
C[C@@H]1C[C@H]2[C@@H]3CCC4=CC(=O)C=C[C@]4(C)[C@@]3(F)[C@@H](O)C[C@]2(C)[C@@]1(O)C(=O)CO [Dexamethasone] | 88.9 | 88.9 | 66.7 | 2.33 | 2 | 1.56 |  |  |  |  | 
C=CC[C@@H]1/C=C(\C)C[C@H](C)C[C@H](OC)[C@H]2O[C@@](O)(C(=O)C(=O)N3CCCC[C@H]3C(=O)O[C@H](/C(C)=C/[C@@H]3CC[C@@H](O)[C@H](OC)C3)[C@H](C)[C@@H](O)CC1=O)[C@H](C)C[C@@H]2OC [FK506, tacrolimus] |  |  |  |  |  |  | 16.7 | 2.5 | 1.5 | 0.5 | 0

Reference: patent publication US20260207759A1, “COMPOSITION OF CD40-BINDING MOLECULE AND PHARMACEUTICAL USE THEREOF” (SUZHOU SUNCADIA BIOPHARMACEUTICALS CO., LTD., priority 2022, published 2026)
